Earlier results, collected in patent publication US20050065130A1, “Pharmaceutical compositions and methods comprising combinations of 2-alkylidene-19-nor-vitamin D derivatives and a cyclooxgenase-2 inhibitor” (Pfizer Inc., priority 2003, published 2005).

## C=C1[C@H](O)CC(=C/C=C2\CCC[C@]3(C)[C@@H]([C@H](C)CCCC(C)(C)O)CC[C@@H]23)C[C@H]1O [2-Methylene-19-Nor-1,25-(OH)2D3, 1α,25-dihydroxy-2-methylene-19-nor-vitamin D3]
Chronic mode 7 days, both dose levels (130 and 260 pmol/day)
  bone calcium mobilization (in words): extremely strong
Relative to 1,25-(OH)2D3, chronic mode 7 days
  activity on bone calcium mobilization (serum calcium), times that of the native hormone 1,25-(OH)2D3: 10-100 times

## C=C1/C(=C\C=C2/CCC[C@]3(C)[C@@H]([C@H](C)CCCC(C)(C)O)CC[C@@H]23)C[C@@H](O)C[C@@H]1O [1,25-(OH)2D3, 1,25-dihydroxyvitamin D3, reference compound]
As printed: twice the dose, at the 130 pmol dose
  serum calcium value: 13.8 mg/100 ml
